Where two headings read alike, the source gives them in different places.
How the values were obtained:
[1] = system: Hirsutella rhossiliensis; conditions: for Growth rate mm-in-diam, on agar: named vitamin excluded from medium with all other vitamins; for Growth rate mm-in-diam, on agar / Sporulation 10^3/cm^2, on agar / growth in liquit culture (visual rating): 5 weeks; for Spore germination %, on agar / Sporulation 10^3/cm^2, on agar / growth in liquit culture (visual rating): named vitamin excluded
[2] = system: Hirsutella rhossiliensis; test: Effect of nitrogen source on growth, sporulation and spore germination; conditions: for Growth mm-in-diam, on agar: nitrogen source 0.3296 g/L nitrogen
[3] = system: soybean cyst nematode; test: 1998 field trial (Waseca): SCN population, fungal parasitism, soybean growth; assay type: in vivo, Heterodera glycines
Method: (§1) A field experiment was conducted at one site in Waseca in 1998. Fungi used in this study included three species of egg-parasitic fungi, Verticillium chlamydosporium from Florida, ARF18 from Arkansas, and Cylindrocarpon destructans from Minnesota, and two species of juvenile-parasitic fungi, Hirsutella rhossiliensis and Hirsutella minnesotensis from Minnesota. The fungi were cultured on corn-grits, applied in furrow and mixed into soil. Additionally, aldicarb (nematicide) and lorsban (insecticide) were included for a comparison purpose. Plots applied with fungal culture medium, without addition of the culture medium, and plots with a resistant cultivar Pioneer 9234 were included as controls. Each plot consisted of two rows with row spacing of 30 inches and row length of 15 feet. The plots were separated by four rows without application of agents. Four replicates were used. Nematode egg density at planting, and egg density and juvenile density 2 months after planting and at harvest were determined. […] Levels of fungal parasitism of nematode eggs and juveniles were measured 2 months after planting and at harvest.

[4] = system: Heterodera glycines; assay type: in vivo
Method: as §1
Other procedures applied in 2000 were the same as used in 1999.

[5] = nitrogen source, isolate ATCC46487
[6] = nitrogen source, isolate JA16-1
[7] = nitrogen source, isolate OWVT-1
[8] = nitrogen source, isolate OWVT-1, 5 weeks

Nc1nc2ncc(CNc3ccc(C(=O)N[C@@H](CCC(=O)O)C(=O)O)cc3)nc2c(=O)[nH]1 [Folic acid]
Growth rate mm-in-diam, on agar ([1]; isolate ATCC46487): 39.3 mm-in-diam
Growth rate mm-in-diam, on agar ([1]; isolate JA16-1): 19.7 mm-in-diam
Growth rate mm-in-diam, on agar ([1]; isolate OWVT-1): 28.7 mm-in-diam
Spore germination %, on agar ([1]; isolate ATCC46487): 82.2%
Sporulation 10^3/cm^2, on agar ([1]; isolate ATCC46487): 59.7 10^3/cm^2
Spore germination %, on agar ([1]; isolate JA16-1): 87.8%
Sporulation 10^3/cm^2, on agar ([1]; isolate JA16-1): 24.2 10^3/cm^2
growth in liquit culture (visual rating) ([1]; isolate JA16-1): I
Spore germination %, on agar ([1]; isolate OWVT-1): 61.1%
Sporulation 10^3/cm^2, on agar ([1]; isolate OWVT-1): 15.4 10^3/cm^2

O[C@H]1[C@H](O)[C@@H](O)[C@H](O)[C@@H](O)[C@H]1O [myo-inositol]
Growth rate mm-in-diam, on agar ([1]; isolate ATCC46487): 40.8 mm-in-diam
Growth rate mm-in-diam, on agar ([1]; isolate JA16-1): 18.3 mm-in-diam
Growth rate mm-in-diam, on agar ([1]; isolate OWVT-1): 31.5 mm-in-diam
Spore germination %, on agar ([1]; isolate ATCC46487): 72.2%
Sporulation 10^3/cm^2, on agar ([1]; isolate ATCC46487): 41.9 10^3/cm^2
Spore germination %, on agar ([1]; isolate JA16-1): 84.4%
Sporulation 10^3/cm^2, on agar ([1]; isolate JA16-1): 16.7 10^3/cm^2
growth in liquit culture (visual rating) ([1]; isolate JA16-1): I
Spore germination %, on agar ([1]; isolate OWVT-1): 64.4%
Sporulation 10^3/cm^2, on agar ([1]; isolate OWVT-1): 8.3 10^3/cm^2

Cc1cc2nc3c(=O)[nH]c(=O)nc-3n(C[C@H](O)[C@H](O)[C@H](O)CO)c2cc1C [Riboflavin, UPS (VB2)]
Growth rate mm-in-diam, on agar ([1]; isolate ATCC46487): 41.0 mm-in-diam
Growth rate mm-in-diam, on agar ([1]; isolate JA16-1): 20.2 mm-in-diam
Growth rate mm-in-diam, on agar ([1]; isolate OWVT-1): 30.2 mm-in-diam
Spore germination %, on agar ([1]; isolate ATCC46487): 91.1%
Sporulation 10^3/cm^2, on agar ([1]; isolate ATCC46487): 30.6 10^3/cm^2
Spore germination %, on agar ([1]; isolate JA16-1): 85.6%
Sporulation 10^3/cm^2, on agar ([1]; isolate JA16-1): 13.2 10^3/cm^2
growth in liquit culture (visual rating) ([1]; isolate JA16-1): I
Spore germination %, on agar ([1]; isolate OWVT-1): 60.0%
Sporulation 10^3/cm^2, on agar ([1]; isolate OWVT-1): 11.1 10^3/cm^2
growth in liquit culture (visual rating) ([1]; isolate OWVT-1): I

Nc1ccc(C(=O)O)cc1 [p-Amino-benzoic acid (PABA)]
Growth rate mm-in-diam, on agar ([1]; isolate ATCC46487): 41.5 mm-in-diam
Growth rate mm-in-diam, on agar ([1]; isolate JA16-1): 16.7 mm-in-diam
Growth rate mm-in-diam, on agar ([1]; isolate OWVT-1): 28.3 mm-in-diam
Spore germination %, on agar ([1]; isolate ATCC46487): 82.2%
Sporulation 10^3/cm^2, on agar ([1]; isolate ATCC46487): 29.9 10^3/cm^2
Spore germination %, on agar ([1]; isolate JA16-1): 84.4%
Sporulation 10^3/cm^2, on agar ([1]; isolate JA16-1): 35.1 10^3/cm^2
growth in liquit culture (visual rating) ([1]; isolate JA16-1): I
Spore germination %, on agar ([1]; isolate OWVT-1): 51.1%
Sporulation 10^3/cm^2, on agar ([1]; isolate OWVT-1): 14.2 10^3/cm^2

CC(C)(CO)C(O)C(=O)NCCC(=O)O (racemic) [DL-pantothenic acid]
Growth rate mm-in-diam, on agar ([1]; isolate ATCC46487): 39.5 mm-in-diam
Growth rate mm-in-diam, on agar ([1]; isolate JA16-1): 18.8 mm-in-diam
Growth rate mm-in-diam, on agar ([1]; isolate OWVT-1): 29.3 mm-in-diam
Spore germination %, on agar ([1]; isolate ATCC46487): 72.2%
Sporulation 10^3/cm^2, on agar ([1]; isolate ATCC46487): 28.6 10^3/cm^2
Spore germination %, on agar ([1]; isolate JA16-1): 88.9%
Sporulation 10^3/cm^2, on agar ([1]; isolate JA16-1): 17.1 10^3/cm^2
growth in liquit culture (visual rating) ([1]; isolate JA16-1): I
Spore germination %, on agar ([1]; isolate OWVT-1): 55.6%
Sporulation 10^3/cm^2, on agar ([1]; isolate OWVT-1): 9.9 10^3/cm^2

N[C@@H](Cc1c[nH]cn1)C(=O)O [L-Histidine]
Growth mm-in-diam, on agar ([2]; isolate ATCC46487, 5 weeks): 36.3 mm-in-diam
Growth mm-in-diam, on agar ([2]; isolate JA16-1, 5 weeks): 8.5 mm-in-diam
Growth mm-in-diam, on agar ([2]; isolate OWVT-1, 5 weeks): 12.8 mm-in-diam
Spore germination %, on agar [2, 5]: 82.2%
Sporulation 10^3/cm^2, on agar ([2]; nitrogen source, isolate ATCC46487, 5 weeks): 1.8 10^3/cm^2
Spore germination %, on agar [2, 6]: 82.2%
Sporulation 10^3/cm^2, on agar ([2]; nitrogen source, isolate JA16-1, 5 weeks): 3.4 10^3/cm^2
Spore germination %, on agar [2, 7]: 65.6%
Sporulation 10^3/cm^2, on agar [2, 8]: 2.1 10^3/cm^2
growth in liquit culture (visual rating) [2, 8]: III (III = hyphae growth or colonies form a pellet, less than 2.5 ml)

O=C(O)c1cccnc1 [Nicotinic acid]
Growth rate mm-in-diam, on agar ([1]; isolate ATCC46487): 40.5 mm-in-diam
Growth rate mm-in-diam, on agar ([1]; isolate JA16-1): 20.0 mm-in-diam
Growth rate mm-in-diam, on agar ([1]; isolate OWVT-1): 27.7 mm-in-diam
Spore germination %, on agar ([1]; isolate ATCC46487): 77.8%
Sporulation 10^3/cm^2, on agar ([1]; isolate ATCC46487): 30.1 10^3/cm^2
Spore germination %, on agar ([1]; isolate JA16-1): 94.4%
Sporulation 10^3/cm^2, on agar ([1]; isolate JA16-1): 12.2 10^3/cm^2
growth in liquit culture (visual rating) ([1]; isolate JA16-1): I
Spore germination %, on agar ([1]; isolate OWVT-1): 57.8%
Sporulation 10^3/cm^2, on agar ([1]; isolate OWVT-1): 10.7 10^3/cm^2

CNC(=O)O/N=C/C(C)(C)SC [Aldicarb, aldicarb]
% J2 parasitized, End season ([3]; in vivo): 4%
% J2 parasitized, Midseason ([3]; in vivo): 0%
Egg population, At planting, Eggs/100 cm^3 soil ([3]; in vivo): 772 Eggs/100 cm^3 soil
Egg population, End season, % Reduction ([3]; in vivo): 64%
Egg population, End season, Eggs/100 cm^3 soil ([3]; in vivo): 4,788 Eggs/100 cm^3 soil
Egg population, Midseason, % Reduction ([3]; in vivo): 58%
Egg population, Midseason, Eggs/100 cm^3 soil ([3]; in vivo): 1,200 Eggs/100 cm^3 soil
Juvenile (J2) population, End season, % Reduction ([3]; in vivo): 66%
Juvenile (J2) population, End season, J2/100 cm^3 soil ([3]; in vivo): 98
Juvenile (J2) population, Midseason, % Reduction ([3]; in vivo): 54%
Juvenile (J2) population, Midseason, J2/100 cm^3 soil ([3]; in vivo): 129
Plant growth: Emergence rate (%) ([3]; in vivo): 88.4%
Reproduction rate Pf/Pi ([3]; in vivo): 6.5
Reproduction rate Pf/Pm ([3]; in vivo): 4.5
Reproduction rate Pm/Pi ([3]; in vivo): 1.6
Plant growth: Yield (Bul/Acre) ([3]; soybean, 1998 field plots, 1200 g ai/acre): 23.0 Bul/Acre
% J2 parasitizd, Midseason ([4]; in vivo): 12.9a %
Eggs/100 cc soil, At harvest ([4]; in vivo): 13,975b Eggs/100 cc soil
Eggs/100 cc soil, Midseason ([4]; in vivo): 1,166bc Eggs/100 cc soil
J2/100 cc soil, Midseason ([4]; in vivo): 141bc
Yield bu/A ([4]; soybean, 2000 field plots, means of four replicates): 55.5a bu/A

N[C@@H](Cc1ccc(O)cc1)C(=O)O [L-tyrosine]
Spore germination %, on agar [2, 5]: 91.1%
Spore germination %, on agar [2, 6]: 86.7%
Spore germination %, on agar [2, 7]: 67.8%

Cc1ncc(CO)c(CO)c1O [Pyridoxine (VB6)]
Growth rate mm-in-diam, on agar ([1]; isolate ATCC46487): 40.5 mm-in-diam
Growth rate mm-in-diam, on agar ([1]; isolate JA16-1): 17.2 mm-in-diam
Growth rate mm-in-diam, on agar ([1]; isolate OWVT-1): 29.5 mm-in-diam
Spore germination %, on agar ([1]; isolate ATCC46487): 74.4%
Sporulation 10^3/cm^2, on agar ([1]; isolate ATCC46487): 31.1 10^3/cm^2
growth in liquit culture (visual rating) ([1]; isolate ATCC46487): III (III = hyphae growth or colonies form a pellet, less than 2.5 ml)
Spore germination %, on agar ([1]; isolate JA16-1): 90.0%
Sporulation 10^3/cm^2, on agar ([1]; isolate JA16-1): 16.5 10^3/cm^2
growth in liquit culture (visual rating) ([1]; isolate JA16-1): I
Spore germination %, on agar ([1]; isolate OWVT-1): 50.0%
Sporulation 10^3/cm^2, on agar ([1]; isolate OWVT-1): 13.0 10^3/cm^2

Cc1ncc(C[n+]2csc(CCO)c2C)c(N)n1 [Thiamine (VB1)]
Growth rate mm-in-diam, on agar ([1]; isolate ATCC46487): 38.5 mm-in-diam
Growth rate mm-in-diam, on agar ([1]; isolate JA16-1): 20.3 mm-in-diam
Growth rate mm-in-diam, on agar ([1]; isolate OWVT-1): 24.7 mm-in-diam
Spore germination %, on agar ([1]; isolate ATCC46487): 75.6%
Sporulation 10^3/cm^2, on agar ([1]; isolate ATCC46487): 30.1 10^3/cm^2
Spore germination %, on agar ([1]; isolate JA16-1): 91.1%
Sporulation 10^3/cm^2, on agar ([1]; isolate JA16-1): 30.4 10^3/cm^2
Spore germination %, on agar ([1]; isolate OWVT-1): 58.9%
Sporulation 10^3/cm^2, on agar ([1]; isolate OWVT-1): 15.7 10^3/cm^2

O=C(O)CCCC[C@@H]1SC[C@@H]2NC(=O)N[C@@H]21 [d-Biotin (V.H)]
Growth rate mm-in-diam, on agar ([1]; isolate ATCC46487): 39.7 mm-in-diam
Growth rate mm-in-diam, on agar ([1]; isolate JA16-1): 16.3 mm-in-diam
Growth rate mm-in-diam, on agar ([1]; isolate OWVT-1): 27.7 mm-in-diam
Spore germination %, on agar ([1]; isolate ATCC46487): 80.0%
Sporulation 10^3/cm^2, on agar ([1]; isolate ATCC46487): 29.5 10^3/cm^2
Spore germination %, on agar ([1]; isolate JA16-1): 90.0%
Sporulation 10^3/cm^2, on agar ([1]; isolate JA16-1): 14.1 10^3/cm^2
growth in liquit culture (visual rating) ([1]; isolate JA16-1): I
Spore germination %, on agar ([1]; isolate OWVT-1): 50.0%
Sporulation 10^3/cm^2, on agar ([1]; isolate OWVT-1): 11.7 10^3/cm^2

Reference: patent US7384629B2, “Biological control of nematodes with Hirsutella minnesotensis” (Regents of the University of Minnesota, priority 2000, dated 2008)
